According to patent US7094760B2, “Peptides for treatment of inflammation and shock” (Salpep Biotechnology, Inc., priority 1996, dated 2006):
Ends that are not written are not given here.

Assays:
[1] = system: jejunal segments from ovalbumin-sensitized rats; assay: antigen-induced jejunal segment contraction, URE/OA ratio, Example 7; set-up: species or system rat; conditions: 10 μg peptide; for URE/OA: 100 ng OA, 20 μg urecholine
Procedure: Animals and Tissue Preparation: Male Sprague-Dawley rats were sensitized to egg albumin (ovalbumin, OA) with 50 ng of Pertussis bordetella toxin as an adjuvant. Four to six weeks after sensitization, the rats were anaethetised with sodium pentobarbital and the jejunum was removed. Two cm sections of the jejunum were mounted in tissue baths under 0.75 g of isometric tension, and the tissues were allowed to equilibrate for 20 min prior to beginning the experiment.
10 μg of SGP-T or one of its analogues or fragments was added to a bath, while control tissues received the saline vehicle. Following a 10 min incubation, 100 ng of OA prepared in 0.9% saline was added. After the tissue had reached a maximal contractile response, the tissues were washed extensively to remove OA and peptide and, after the tissues had established baseline tension, 20 μg of urecholine (URE; a cholinergic-muscarinic receptor agonist) was added to determine the maximal contractile response of the tissue. The tissues were then removed from the bath, cleared of all underlying mucosa and the weight of the remaining muscle was determined.
Data Analysis: The tension (measured in grams) per gram tissue weight generated by each tissue in response to OA and URE was calculated. To normalize for differences in the ability of each tissue segment to contract in response to the muscle stimulants, the contractile response to […]. Thus, a measure of the antigen-induced contraction was expressed as the URE/OA ratio.
The data was analyzed using the one-way analysis of variance (ANOVA) and differences between groups was determined using the Student t-test for unpaired samples. The results are shown in FIGS. 7 and 8 and Tables 3 and 4.

[2] = system: isolated jejunal segments from egg albumin-sensitised rats; assay: antigen-induced contraction of isolated jejunal segments, Examples 3 and 6; set-up: species or system rat; key to Biological Activity = inhibition of antigen-induced jejunal contraction by test peptide: +++ = highest inhibition (~60%); ++ = moderate inhibition (~40%); + = lowest inhibition (~20%); − = no inhibition
Procedure: SGP-T, at doses as low as 6.8×10^−7M, reduced antigen induced contractions of these isolated intestinal tissues by 60% (data not shown).
Analogues and fragments of SGP-T were tested for their ability to inhibit antigen (egg albumin)-induced intestinal contractions, using isolated jejunal segments from egg albumin-sensitised rats, as described in Example 3.

[3] = system: LPS (Salmonella typhosa)-induced hypotension in sialadenectomized rats; assay: endotoxin (LPS)-induced hypotension, sialadenectomized rats; assay type: in vivo, rat
Procedure: (§1) The animal model of endotoxic shock used involves intravenous injection of endotoxin (3.5 mg/kg of lipopolysaccharide (LPS) from Salmonella typhosa) into pentobarbital-anaesthetized Sprague-Dawley rats, to produce a fall in mean arterial blood pressure within 3 to 5 minutes. The endotoxin was injected slowly over 1 min. via the jugular vein, and mean arterial blood pressure in mm mercury (MABP) was monitored continuously for 60 min, with the average blood pressure being calculated at 15, 30, 45 and 60 min. Studies were performed on unoperated rats and rats with their submandibular glands removed (sialadenectomized).
(§2) The results shown in Table 1 are the averages of three different experiments using the protocol defined above. The data shown represent the average decrease in MABP (dec MABP) and the % Decrease in MABP over the 60 minutes following LPS administration. SGP-S (100μg/kg) and SGP-T (100 μg/kg) were administered 90 min. before LPS. […] Neither SGP-T nor SGP-S, when given prior to the LPS challenge, had appreciable effects on MABP.
(§3) The dose-response relationship of the inhibitory effect of SGP-T and SGP-S on endotoxin-induced hypotension was also examined and the results are shown in FIG. 1.

[4] = system: LPS (Salmonella typhosa)-induced hypotension in unoperated rats; assay: endotoxin (LPS)-induced hypotension, unoperated rats; assay type: in vivo, rat
Procedure: as §1, §2
Overall, SGP-T reduced by 60% the decrease and the percent decrease in MABP induced by endotoxin, relative to pre-LPS values. SGP-S, on the other hand, had no effect on the shock induced by endotoxin in unoperated rats.
as §3

[5] = peptide 100 μg/kg 90 min before LPS 3.5 mg/kg iv

Substance	URE/OA ([1]; Table 3, saline 4.0 ± 0.4)	Biological Activity = inhibition of antigen-induced jejunal contraction by test peptide [2]	anti-anaphylactic activity in jejunal assay, in words [1]	further results
ADIFEGG [T3, alanine analogue of SGP-T]	3.6 ± 0.9	−		
FE-Citrulline			loss of biological activity	URE/OA ([1]; Table 4, saline 5.7 ± 1.0): 5.0 ± 1.1
FE-Proline			loss of biological activity	URE/OA ([1]; Table 4, saline 5.7 ± 1.0): 6.2 ± 1.3
FE-Sarcosine				URE/OA ([1]; Table 4, saline 5.7 ± 1.0): 10.0 ± 1.6
FEG		++ (++ = moderate inhibition (~40%))		
FEGGG [T6]	10.7 ± 2.0	++ (++ = moderate inhibition (~40%))	no effect on activity	
NH2-Ser-Gly-Glu-Gly-Val-Arg-COOH (H-SGEGVR-OH) [SGP-S, submandibular gland peptide S, SGEGVR]				effect on drop in MABP after LPS [3]: significantly reduced the drop in MABP; % Dec = percent decrease in MABP relative to MABPbef [3, 5]: −32.3 ± 3.9 %; MABPaft = average MABP for 60 mins after LPS injection [3, 5]: 81.6 ± 5.8 mm Hg; dec MABP = decrease in MABP after LPS relative to MABPbef [3, 5]: −37.6 ± 4.4 mm Hg; effect on drop in MABP / shock induced by endotoxin [4]: no effect; % Dec = percent decrease in MABP relative to MABPbef [4, 5]: −22.9 ± 1.3%; MABPaft = average MABP for 60 mins after LPS injection [4, 5]: 95.2 ± 4.3 mm Hg; dec MABP = decrease in MABP after LPS relative to MABPbef [4, 5]: −28.1 ± 1.8 mm Hg
STDIFEGG [T2, analogue of SGP-T]	3.58 ± 1.07	−		
TAIFEGG [T7, alanine analogue of SGP-T]	12.3 ± 2.2	+++ (+++ = highest inhibition (~60%))	minimal effect on prevention of anaphylaxis	
TDAFEGG [T10, alanine analogue of SGP-T]	8.3 ± 1.9	+ (+ = lowest inhibition (~20%))	minimal effect on prevention of anaphylaxis	
TDIAEGG [T11, alanine analogue of SGP-T]	5.2 ± 1.2	−		
TDIFAGG [T9, alanine analogue of SGP-T]	7.2 ± 1.1	−		
TDIFE [T4]	1.7 ± 0.3	−	abolished anti-anaphylactic activity	
TDIFEGG-NH2 [T5, SGP-T with amidated terminal glycine]	4.3 ± 0.7	−	abolished anti-anaphylactic activity	
